The structures appear in SMILES notation.

Data on 7 molecules can be found in US11040028B2, “Penicinotam derivative, preparation method and use thereof” (OCEAN UNIVERSITY OF CHINA, priority 2017, dated 2021).

Holding throughout (type): cell-based
Test [1] concerns human hepatic stellate cells LX-2. Put plainly: Anti-fibrosis activity test: inhibition of proliferation of human hepatic stellate cells LX-2 (CCK-8). Conditions: Homo sapiens, 48 h, human hepatic stellate cells LX-2, CCK-8, 48 hours. In short, it runs like this:
(§1)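 A CCK-8 proliferation assay was run: cells at 2×10^4 cells/mL, adherent for 24 h, then incubated 48 h at 37° C with compound dilutions. A450 was recorded 2 h after CCK-8 addition and converted to percent inhibition versus blank for IC50 determination.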

For test [2], the system named is human fibrosarcoma cells HT-1080. Put plainly: Anti-fibrosis activity test: inhibition of proliferation of human fibrosarcoma cells HT-1080 (CCK-8). Conditions: Homo sapiens, HT-1080, 48 h, human fibrosarcoma cells HT-1080, CCK-8, 48 hours. An outline of the steps: as §1
The test system of test [3] is cardiac fibroblast RAT-iCell-C002. In words: Anti-fibrosis activity test: inhibition of proliferation of cardiac fibroblast RAT-iCell-C002 (CCK-8). As to conditions: Cardiac fibroblast, 48 h, cardiac fibroblast RAT-iCell-C002, CCK-8, 48 hours. In short, it runs like this:
as §1

For another test, the system named is BHK-21 cells. In words: Anti-fibrosis activity test: inhibition of BHK-21 cell proliferation (CCK-8). As to conditions: Mesocricetus auratus, BHK-21, 48 h, CCK-8, 48 hours after administration. In short, it runs like this:
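BHK-21 cells seeded at 2×10^4 cells/mL, allowed to adhere 24 h at 37° C, 5% CO2, then exposed to compounds at graded concentrations in triplicate for 48 h. CCK-8 added for 2 h and absorbance read at 450 nm; inhibition rate taken as (1−Ai/Ao)×100% and IC50 fitted.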

In test [4] the test system is human lung fibroblasts HFL1. In words: Anti-fibrosis activity test: inhibition of proliferation of human lung fibroblasts HFL1 (CCK-8). Conditions: Homo sapiens, HFL1, 48 h, human lung fibroblasts HFL1, CCK-8, 48 hours. In short, it runs like this:
as §1

Test [5] relates to human dermal fibroblasts CCC-ESF-1. In words: Anti-fibrosis activity test: inhibition of proliferation of human dermal fibroblasts CCC-ESF-1 (CCK-8). As to conditions: Fibroblast; human dermal fibroblasts CCC-ESF-1, CCK-8, 48 hours. In short, it runs like this:
as §1

Test [6] has as its system mouse macrophages (RAW264.7). In words: Lipopolysaccharide-induced NO secretion in macrophages (Griess). As to conditions: Mus musculus, RAW264.7, 24 h, RAW264.7, LPS 1 μg/ml, a/b isomers given as first/second symbol, read-out: IC50 (μM), inhibition of lipopolysaccharide-induced NO secretion in macrophages. Here is the method:
The effects of the compounds of the present application on the lipopolysaccharide-induced NO secretion in macrophage was tested Principle: Anti-inflammatory drug activity screening is to detect the inhibitory effect of compounds on NO production in the mouse macrophages (RAW264.7). When immune cells are stimulated by microbial endotoxin, inflammatory mediators, etc., a large amount of induced NO synthase (iNOS) is produced, and thus NO is generated for immune response. Accordingly, the inhibition of NO production can serve as a direct indicator of the anti-inflammatory activity of the compound. The activity of the compound to inhibit NO production at the cellular level is directly evaluated in the abovementioned test model, thereby reflecting the anti-inflammatory activity of the compound. In this experiment, the content of NO in the medium was detected by Gris kit (Molecular probes, G-7921). Macrophages (Raw264.7) were cultured in DMEM medium containing 10% fetal bovine serum, with the cell concentration adjusted. The cells were seeded in 24-well cell culture plates, cultured in an incubator, and the test samples in different concentrations were added every other day. The blank medium was used as a blank control, and commercially available indomethacin and resveratrol were employed as positive controls. After the addition of lipopolysaccharide (LPS, 1 μg/ml), incubation was performed for 24 hours. Then the supernatant culture solution was taken, to […] reagent was added, and the absorbance value was measured by a microplate reader at 548 nm. Inhibition rate=([…])×100%.
(In general: Nitrite, measured by Griess reagent, commonly stands in for NO production.)

Test [7] concerns human embryonic lung fibroblast IMR-90. In words: Anti-fibrosis activity test: inhibition of proliferation of human embryonic lung fibroblast IMR-90 (CCK-8). Conditions: human embryonic lung fibroblast IMR-90, CCK-8, 48 hours. In short, it runs like this:
as §1

One may read the IC50 as the midpoint of a concentration-inhibition curve. In the case of `N#Cc1ccc2nc3c(c(Oc4ccc(Cl)cc4)c2c1)C(=O)n1cccc1-3` [Compound 210b, 9-(4-chlorophenoxy)-10-oxo-10H-pyrrolizino[1,2-b]quinoline-7-carbonitrile], the IC50 (in test [1]; in test [2]; in test [3]; in the test with BHK-21 cells; in test [4]; in test [5]) was 0.05 to 5 mM each time. Moreover, the IC50 in test [6] lay in the range of 1 to 10 µM; in test [7] it was 0.05 to 5 mM.

As to `O=C1c2c(n(-c3ccc(F)cc3)c3ccc(C(F)(F)F)cc3c2=O)-c2cccn21` [Compound 259a, 4-(4-Fluorophenyl)-7-(trifluoromethyl)-9H-pyrrolizino[1,2-b]quinoline-9,10(4H)-dione], the half-inhibitory concentration (IC50) is 0.05 to 5 mM in test [1]; 0.05 to 5 mM in test [2]; 0.05 to 5 mM in test [3]; 0.05 to 5 mM in the test on BHK-21 cells; 0.05 to 5 mM in test [4]; 5 to 20 mM in test [5]. Moreover, the IC50 in test [6] is 1 to 10 µM; in test [7], 0.05 to 5 mM.

As for `O=C1c2c(nc3ccc(C(F)(F)F)cc3c2Oc2ccc(F)cc2)-c2cccn21` [Compound 259b, 9-(4-fluorophenoxy)-7-(trifluoromethyl)-10H-pyrrolizino[1,2-b]quinolin-10-one], the IC50 in test [1] was in the range of 0.05 to 5 mM; in test [2], 0.05 to 5 mM; in test [3] it was 0.05 to 5 mM; in the test with BHK-21 cells it was 0.05 to 5 mM; in test [4], 0.05 to 5 mM; in test [5], 5 to 20 mM. The IC50 is 1 to 10 µM in test [6] and < 0.05 mM in test [7].

On to `O=C1c2c(n(-c3ccc(Cl)cc3)c3ccc(C(F)(F)F)cc3c2=O)-c2cccn21` [Compound 276a, 4-(4-Chlorophenyl)-7-(trifluoromethyl)-9H-pyrrolizino[1,2-b]quinoline-9,10(4H)-dione], for which the concentration for half-maximal inhibition (IC50) is 0.05 to 5 mM in test [1]; 0.05 to 5 mM in test [2]; 5 to 20 mM in test [3]; < 0.05 mM in the test on BHK-21 cells; 0.05 to 5 mM in test [4]; 0.05 to 5 mM in test [5]. Besides, the IC50 fell in the range of 0.1 to 1 µM in test [6] and 0.05 to 5 mM in test [7].

For `O=C1c2c(nc3ccc(C(F)(F)F)cc3c2Oc2ccc(Cl)cc2)-c2cccn21` [Compound 276b, 9-(4-chlorophenoxy)-7-(trifluoromethyl)-10H-pyrrolizino[1,2-b]quinolin-10-one], the IC50 (in test [1]; in test [2]; in test [3]; in the test on BHK-21 cells; in test [4]; in test [5]) was 0.05 to 5 mM throughout. Further, the figures for the half-inhibitory concentration (IC50) in test [6] and in test [7] were 1 to 10 µM and 0.05 to 5 mM, respectively.

Take `O=C1c2c(n(-c3ccc(Cl)cc3)c3ccc(OC(F)(F)F)cc3c2=O)-c2cccn21` [Compound 300a, 4-(4-Chlorophenyl)-7-(trifluoromethoxy)-9H-pyrrolizino[1,2-b]quinoline-9,10(4H)-dione]: the half-inhibitory concentration (IC50) fell in the range of 0.05 to 5 mM in test [1]; 0.05 to 5 mM in test [2]; 0.05 to 5 mM in test [3]; 5 to 20 mM in the test with BHK-21 cells; 0.05 to 5 mM in test [4]; 0.05 to 5 mM in test [5]. Further, the IC50 was in the range of 0.1 to 1 µM in test [6] and 0.05 to 5 mM in test [7].

Regarding `O=C1c2c(nc3ccc(OC(F)(F)F)cc3c2Oc2ccc(Cl)cc2)-c2cccn21` [Compound 300b, 9-(4-chlorophenoxy)-7-(trifluoromethoxy)-10H-pyrrolizino[1,2-b]quinolin-10-one], the 50% inhibitory concentration (IC50) (in test [1]; in test [2]; in test [3]; with BHK-21 cells; in test [4]; in test [5]) was 0.05 to 5 mM in each case. The values for the concentration for half-maximal inhibition (IC50) in test [6] and in test [7] were 1 to 10 µM and 0.05 to 5 mM, respectively.
